Measurements reported in patent US8445030B2 (priority 2009, dated 2013).
Entries after “also recorded” stand apart in the source; their conditions may differ. Like-named read-outs stand apart in the source and are kept apart here.

Columns and labels:
Microbes = test: Microbial efficacy and duration of effects of components; conditions: component of the spray of Example 1
[1] = cited from earlier work
microorganisms = test: Antiseptic function of components in CaF2-based formulations (Examples 2-4)
[2] = same as normal skin (pH 5.4-5.5)
[3] = component of Example 4 hand disinfection spray
[4] = component of Example 2 wound gel
[5] = component of Example 3 hair gel

Structure (SMILES): O=C(O)CC(O)(CC(=O)O)C(=O)O [Citric acid]
- Microbial Efficacy (Microbes): bactericide, virucide,; also recorded: fungicide

Structure (SMILES): OO [H2O2 (hydrogen peroxide), hydrogen peroxide]
- Duration of Effects (Microbes): short (short = within 60 sec up to max 5 min)
- Microbial Efficacy (Microbes): bactericide, virucide,; also recorded: fungicide
- LD 50 Oral on Rats ([1]; rat, in vivo, po): 2000 mg/kg

Structure (SMILES): O=C(O)C=Cc1ccccc1 [Cinnamic acid]
- Duration of Effects (Microbes): short to long
- Microbial Efficacy (Microbes): bactericide, virucide,; also recorded: fungicide

Structure (SMILES): [Na+].[O-]Cl [NaOCl (Javel water), NaOCl]
- Microbial Efficacy (Microbes): bactericide, virucide,; also recorded: fungicide
- fast acting antiseptic action (microorganisms; [3]): log 6, fast acting
- LD 50 Oral on Rats ([1]; oral, rats): 2000 mg/kg

Structure (SMILES): CCO [Ethanol]
- fast acting antiseptic action (microorganisms; [4]): log 6, fast acting
- fast acting antiseptic action (microorganisms; [3]): log 6, fast acting

Structure (SMILES): [Ca+2].[F-].[F-] [CaF2 (calcium fluoride), calcium fluoride]
- Microbial Efficacy (Microbes): bactericide, virucide,; also recorded: fungicide
- persistent antiseptic action (microorganisms; [4]): log 3, persistent
- persistent antiseptic action (microorganisms; [5]): log 3, persistent
- persistent antiseptic action (microorganisms; [3]): log 3, persistent
- pH [2]: 5.4
- LD 50 Oral on Rats ([1]; oral, rats): 4500 mg/kg

Structure (SMILES): O=C(O)[C@]1(O)C[C@@H](O)[C@@H](O)[C@H](O)C1 [Quinic acid]
- Microbial Efficacy (Microbes): bactericide, virucide,; also recorded: fungicide
- LD 50 Oral on Rats ([1]; rat, in vivo, po): >8000 mg/kg

Structure (SMILES): CC(C)O [Isopropyl alcohol]
- fast acting antiseptic action (microorganisms; [5]): log 6, fast acting
